Test results taken from patent US7691841B2, “Azetidine derivatives as CCR-3 receptor antagonist” (Novartis AG, priority 2004, dated 2010).

Target: T1, human CCR-3 (Homo sapiens, UniProt P51677)
T1 construct: expressed in transfected cells; host or cells: rat basophil leukaemia (RBL-2H3) cells, membranes
T1 sequence (P51677 1-355): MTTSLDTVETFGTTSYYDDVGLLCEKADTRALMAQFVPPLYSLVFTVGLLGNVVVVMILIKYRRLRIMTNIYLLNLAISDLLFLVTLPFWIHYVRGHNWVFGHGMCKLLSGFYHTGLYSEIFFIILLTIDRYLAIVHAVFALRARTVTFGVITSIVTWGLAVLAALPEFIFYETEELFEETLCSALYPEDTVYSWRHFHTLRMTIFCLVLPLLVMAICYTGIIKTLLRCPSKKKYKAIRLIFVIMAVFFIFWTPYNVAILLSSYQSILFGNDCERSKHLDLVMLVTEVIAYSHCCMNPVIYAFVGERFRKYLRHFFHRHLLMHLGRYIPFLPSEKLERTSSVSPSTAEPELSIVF
Experiment: binding of [125I]-human eotaxin to human CCR-3 (SPA assay)
Details: membranes of RBL-2H3 cells stably expressing CCR3; 50 pM [125I]-human eotaxin; 4 hours at room temperature; read-out: IC50 (concentration of test compound at which 50% inhibition of eotaxin binding occurs)
Description: Compounds of formula I and their pharmaceutically acceptable salts are useful as pharmaceuticals. In particular, they inhibit human chemokine receptor CCR-3. The effect of compounds of the formula I, i.e. agents of the invention, on the binding of human eotaxin to human CCR-3 is determined by the following assay:
Recombinant cells expressing human CCR-3 are captured by wheatgerm agglutinin (WGA) polyvinyltoluidene (PVT) SPA beads (available from Marshal), through a specific interaction between the WGA and carbohydrate residues of glycoproteins on the surface of the cells. [^125I]-human eotaxin (available from Amersham) binds specifically to CCR-3 receptors bringing the [^125I]-human eotaxin in close proximity to the SPA beads. Emitted â-particles from the [^125I]-human eotaxin excite, by its proximity, the fluorophore in the beads and produce light.
Preparation of Assay Buffer: 5.96 g HEPES and 7.0 g sodium chloride are dissolved in distilled water and 1 M aqueous CaCl2 (1 ml) and 1M aqueous MgCl2 (5 ml) are added. The pH is adjusted to 7.6 with NaOH and the solution made to a final volume of 1 l using distilled water. 5 g bovine serum albumin and 0.1 g sodium azide are then dissolved in the solution and the resulting buffer stored at 4° C. A COMPLETE™ protease inhibitor cocktail tablet (available from Boehringer) is added per 50 ml of the buffer on the day of use.
Preparation of Homogenisation Buffer: Tris-base (2.42 g) is dissolved in distilled water, the pH of the solution is adjusted to 7.6 with hydrochloric acid and the solution is diluted with distilled water to a final volume of 1 l. The resulting buffer is stored at 4° C. A COMPLETE™ protease inhibitor cocktail tablet is added per 50 ml of the buffer on the day of use. […]
The assay is performed in a final volume of 250 μl per well of an OPTIPLATE™ microplate (ex Canberra Packard). […] The resulting scintillations are counted using a Canberra Packard TopCount, each well being counted for 1 minute. […]

IC50 [nM] | Compound
297 | O=C(CNC(=O)c1ccc(Cl)cc1)NCC1CN(Cc2ccc(Cl)c(Cl)c2)C1 [Example 5]
420 | Cc1cc(C(=O)NCC(=O)NCC2CN(Cc3ccc(Cl)c(Cl)c3)C2)c(C)n1Cc1ccncc1 [Example 7]
198 | CCOc1ccc2nc(SCC(=O)NCC3CN(Cc4ccc(Cl)c(Cl)c4)C3)sc2c1 [Example 8, N-[1-(3,4-Dichloro-benzyl)-azetidin-3-yl-methyl]-2-(6-ethoxy-benzothiazol-2-ylsulfanyl)-acetamide]
